Consider 2 molecules from ChEMBL document CHEMBL3046884, “Optical Resolution and Biological Activities of S-23121, a New Cereal Herbicide” (Agric Biol Chem, 1991).

The assay deals with Cucumis sativus. The experiment in a line: Induction of membrane damage in Cucumis sativus (cucumber) cotyledon disks assessed as compound level causing […] ethane production incubated under white light for 24 hr at 20 degC. The assay is classed as functional.

Regarding `C#C[C@@H](C)Oc1cc(N2C(=O)C3=C(CCCC3)C2=O)c(F)cc1Cl`, the Activity was 178 nM.
Consider `C#C[C@H](C)Oc1cc(N2C(=O)C3=C(CCCC3)C2=O)c(F)cc1Cl` [(S)-S-23121], for which the Activity turned out to be 21 nM.
